Data on five molecules can be found in US20240208998A1, “COMPOUNDS FOR USE IN THE TREATMENT OF HYPERPROLIFERATIVE DISORDERS” (FUNDACIÓ PRIVADA INSTITUT D'INVESTIGACIÓ ONCOLÓGICA DE VALL …, priority 2021, published 2024).

In one series the target is TET2 (Homo sapiens (Human), UniProt Q6N021). The experiment in a line: Determination of TET2 activity in cell (5-hmC dot-blot, TET2-transfected HEK293T cells). It is filed as cell-based. As to conditions: 10 μM compound, HEK293T transfected with pCMV6-TET2, 48 h after transfection; in reference to vehicle, corrected with example 1 condition. How it is done: The HEK293T cell line was grown in Dulbecco's Modified Eagle Medium (DMEM) containing 10% (v/v) fetal bovine serum (FBS) and 1% (v/v) penicillin-streptomycin (P/S).
Twenty-four hours prior transfection, 3×10^6 HEK293T cells were seeded in p100 dishes previously coated with 0.001% of poly (1-lysine). One hour before transfection, a 10 μM solution of each compound was prepared in complete medium and 9 mL was added by medium replacement in one p100 dish (by duplicate). A solution of complete medium with DMSO was used as a vehicle control. Then, a transfection mix was prepared diluting 8 μg of pCMV6-TET2 expression vector (ID: RC226438, Origene) with 32 μg of polyethylenimine (PEI 25000, Polysciences, Inc.) in a 150 mM NaCl solution per p100 plate. After 15 min of incubation at rt, 1 mL of the transfection mix was added to each p100 plate. Next day, medium was replaced with a fresh diluted compound solution (10 mL/p100 dish). Forty-eight hours after transfection, cells were trypsinized and pelleted. Each pellet was suspended in 500 μL of DNA lysis buffer (50 mM Tris-HCl pH 8, 10 mM EDTA pH 8, 0.1% Triton X-100, 0.5% Tween-20, 400 μg/mL Proteinase K, 50 μg/mL RNAse), and incubated overnight at 56° C. in a thermal mixer. Next day, genomic DNA (gDNA) was extracted from each sample following a standard phenol-chloroform extraction method.
For each sample, 2 μg of gDNA was diluted in 50 μL of H2O. Then, 50 μL of 2X Denature solution (0.8 M NaOH, 20 mM EDTA) was added to each sample and incubated at 95° C. for 10 min. Samples were immediately placed on ice to cool and mixed with 100 μL of cold 2X Neutralize buffer (2 M ammonium acetate pH 7). Then, samples were incubated on ice for 10 min. DNA two-fold serial dilutions were prepared by mixing 100 μL of each sample with 100 μL of H2O in the next well, and so on. A total of 7 serial dilutions were set up. One hundred microliters of each sample and their respective dilutions were spotted on a positively charged nylon membrane (Amersham Hybond-N+, GE healthcare) in an assembled Bio-Dot apparatus (Bio-Rad). Samples were washed adding 400 μL of 0.4 M NaOH in each well. Then, blotted membrane was removed from the Bio-Dot apparatus and washed with 2×SSC buffer (0.3 M NaCl, 30 mM sodium citrate) for 5 min, air dried for 15 min, and UV-crosslinked (energy 120,000 μJ/cm^2) for 1 min. Afterwards, the blotted membrane was blocked with Blocking solution (5% non-fat milk, 0.1% Tween-20 in PBS1X) for 1 h at rt. Then, the membrane was incubated with the 5-hmC (5-hydroxymethylcytosine) primary antibody (#39769, Active Motif) diluted 1/10,000 in Blocking solution for 1 h at rt. Next, membrane was washed three times for 5 min in PBS1X and incubated with the anti-rabbit-HRP secondary antibody diluted 1/5,000 in blocking solution for 1 h at rt. Finally, the membrane was washed three times for 5 min in PBS1X, developed with SuperSignal West Pico Chemiluminescent Substrate (ThermoFisher Scientific), and exposed to autoradiography films (Fujifilm).
Each dot-blot membrane allows the evaluation of up to 6 different conditions (in duplicate) at the same time. Among these 6 different conditions there is always the condition of the vehicle and our compound of example 1, so in the end we evaluated 4 new compounds per membrane. The density intensity of each dot was quantified using the Image J software. […] Fold-change was calculated in reference to the vehicle condition and corrected with the example 1 condition for each dot-blot membrane.

As usually defined, the melting point is the temperature, or range, at which the solid turns liquid.

For `Cc1[nH]c2ccccc2c1-c1nc(NC(=O)Cc2cn3ccsc3n2)sc1C` [Example 4, 2-(imidazo[2,1-b]thiazol-6-yl)-N-[5-methyl-4-(2-methyl-1H-indol-3-yl)thiazol-2-yl]acetamide], the melting point fell in the range of 169 to 172 °C. Moreover, on TET2, the “Fold change (amount of 5-hmC)” value worked out at 9.2.

`Cc1[nH]c2ccccc2c1-c1csc(NC(=O)Cc2c[nH]c3ccc(F)cc23)n1` [Example 12, 2-(5-fluoro-1H-indol-3-yl)-N-[4-(2-methyl-1H-indol-3-yl)thiazol-2-yl]acetamide] displayed a melting point of 230 to 232 °C. Further, on TET2, the “Fold change (amount of 5-hmC)” value stood at 16.0.

`Cc1[nH]c2ccccc2c1-c1csc(NC(=O)Cc2c[nH]c3ccccc23)n1` [Example 13, 2-(1H-indol-3-yl)-N-[4-(2-methyl-1H-indol-3-yl)thiazol-2-yl]acetamide]: the melting point was 246 to 248 °C. Moreover, the “Fold change (amount of 5-hmC)” value at TET2 was determined as 11.6.

Molecule `Cc1[nH]c2ccccc2c1-c1csc(NC(=O)Cc2cc(Br)cs2)n1` [Example 19, 2-(4-bromothiophen-2-yl)-N-[4-(2-methyl-1H-indol-3-yl)thiazol-2-yl]acetamide] registered a melting point of 212 to 214 °C. On TET2, the “Fold change (amount of 5-hmC)” value was 8.4.

Turning to `Cc1[nH]c2ccccc2c1-c1csc(NC(=O)Cc2c[nH]c3ccc(O)cc23)n1` [Example 21, 2-(5-hydroxy-1H-indol-3-yl)-N-[4-(2-methyl-1H-indol-3-yl)thiazol-2-yl]acetamide], the melting point lay in the range of 145 to 149 °C. At TET2, the “Fold change (amount of 5-hmC)” value turned out to be 15.3.
